# “Also recorded” adds a separate entry of the source. Like-named read-outs stand apart in the source and are kept apart here.
# Columns and labels:
# [1] = test system: TrkB and downstream proteins (PLCγ1, Akt1, ERK1/2); assay: Downstream signaling immunoblot, RA-differentiated SH-SY5Y cell line; assay type: cell-based; settings: for Phosphorylation of TrkB and downstream proteins (PLCγ1, Akt1, ERK1/2): RA-differentiated SH-SY5Y, 1, 10, 100 μM, 15 min
# Protocol: The SH-SY5Y cell line was purchased from MilliporeSigma and cultured in growth medium: MEM (w/Earle’s Salts; w/L-Glutamine) + Ham’s F12 (w/L-Glutamine) (1:1 v/v), 1 × Antibiotic-Antimycotic, 1 × MEM Non-Essential Amino Acids (all reagents from Biowest, Riverside, MO, USA) and 15% FBS (Gibco, Thermo Fisher Scientific, Waltham, MA, USA). Cells were passaged using 0.25% Trypsin-EDTA (Biowest) and cultured in standard conditions (5% CO2, 37 °C with 95% relative humidity).
# (§1) To differentiate SH-SY5Y, cells were seeded in a cell culture flask at a density of 10,000 cells/cm^2 in standard growth medium containing 10 μM retinoic acid (RA; MilliporeSigma) and cultured for 7 consecutive days. Then, differentiated cells were harvested by trypsinization (Trypsin-EDTA 1×, 3 min at 37 °C), centrifuged (250× g; 5 min at 25 °C) and counted. The desired experiment cells were seeded in differentiation medium (MEM:Ham’s F12 growth medium +10 μM RA) in multi-well plates at the following densities: 1,000,000 cells/well on a 6-well plate for lysate collection and immunoblot analysis, and 12,000 cells/well into a PDL-treated 96-well plate (BioCoat™, Corning Inc.) for neuroprotection experiments.
# (§2) On the day of the experiments, cells were starved for 5 h with appropriate culture medium. SN56 T48 cells were treated with reference compounds at 100 μM or 1, 10, or 100 μM concentrations of the selected molecules, and 1, 10, and 100 ng/mL of BDNF. Differentiated SH-SY5Y cells were treated with 1, 10, or 100 μM concentrations of the tested molecules and 1, 10, and 100 ng/mL of BDNF for 15 min. For compound specificity, the evaluation cell lines were first pretreated with 1 μM K252a (MilliporeSigma, Saint Louis, MO, USA) for 15 min and then cotreated with 100 μM concentrations of the tested molecules.
# (§3) Compound treatment was stopped by lysing cells with N-PER™ Neuronal Protein Extraction Reagent (Thermo Fisher Scientific) containing 1 × PhosSTOP™ (Roche, Basel, Switzerland), 1 × Halt Protease Inhibitor Single-Use Cocktail (ThermoFisher Scientific) and 5 mM EDTA. The lysates were collected by scraping, and centrifuged (8000× g; 10 min at 4 °C), and the protein concentration was determined using a BCA Pierce kit (ThermoFisher Scientific). The lysates were stored at −80 °C until further processing. Samples containing 20 μg of protein were further denatured in 4 × Laemli Buffer with 5% β-mercaptoethanol at 95 °C for 5 min and electrophoresed on gels prepared using a 10% TGX Stain-Free™ FastCast™ Acrylamide Kit (Bio-Rad). Afterwards, the proteins were transferred (wet transfer, 100 V, 60 min) onto nitrocellulose membranes (GE Healthcare, Chicago, IL, USA), which were blocked in 5% BSA in TBS-T (TBS + 0.1% Tween20) for 2 h. […] After repeated washes (TBS-T), the proteins were detected with HRP-conjugated anti-rabbit antibodies (1:4000, RT, 2 h) (Cell Signaling Technology), and the blots were incubated with Clarity Max ECL Western Blotting Substrate (Bio-Rad). Blot images and chemiluminescence signals were captured using a ChemiDoc MP Imaging System, and densitometry values were calculated using the Image Lab software (Bio-Rad). […]
# [2] = test system: RA-differentiated SH-SY5Y cells; assay: Cytoprotection against MPP+-induced cytotoxicity; assay type: cell-based; settings: MPP+ 0.5 mM, compounds 0.3, 1, 3 μM, BDNF 1, 10, 100 ng/mL, 72 h + 72 h
# Protocol: as §1
# The experiment design was adopted from the article published by Presgraves et al., (2004), with the following modifications. Differentiated SH-SY5Y were prepared as described in Section 4.3.1. On the day of the experiment (Day 0), culture medium containing 10 μM RA was changed for treatment medium composed of MEM:HAM’S F12 (1:1 v/v), 1 × Antibiotic-Antimycotic, and 1 × MEM Non-Essential Amino Acids, with the FBS reduced to 0.5%. In this step, RealTime-Glo™ reagents (Promega, Madison, WI, USA) were added to the treatment medium (to a final concentration of 0.5 × ). Cell viability was measured after 1 h of incubation at 37 °C using a luminometer (VICTOR Light 1420-060) for normalization. Then, the tested compounds and BDNF were diluted in culturing medium as 2 × concentrate (final concentrations of 0.3, 1, and 3 μM for the small molecular compounds and 1, 10, and 100 ng/mL for BDNF) and added into wells for 72 h of incubation (volume, 100 μL/well). Then (Day 3), the treatment medium was replaced with fresh medium containing 0.5 × RealTime-Glo™ reagents (volume, 100 μL/well), and the cell viability was measured for normalization. Then, compounds and BDNF were added as 4 × concentrates (volume, 50 μL/well). In addition, MPP^+ was also diluted in treatment medium and added to the wells as a 4 × concentrate (final concentration, 0.5 mM; volume, 50 μL/well). The cells were incubated for a further 72 h at 37 °C. On Day 6, the cell viability was measured 1 h after replacing the medium with the medium containing 0.5 × RealTime-Glo™ (volume 100 μL/well). The experiments were performed with three biological independent replicates, and the final cell viability (endpoint, Day 6) was normalized to the normalized cell viability calculated on Day 3.
# [3] = test system: TrkB and downstream proteins (PLCγ1, Akt1, ERK1/2); assay: Downstream signaling immunoblot, SN56 T48 cell line; assay type: cell-based; settings: for Phosphorylation of TrkB and downstream proteins (PLCγ1, Akt1, ERK1/2): compounds up to 100 μM, BDNF up to 100 ng/mL, 15 min
# Protocol: The SN56 T48 cell line with stable overexpression of the TrkB receptor was purchased from Emory University (Atlanta, GA, USA) and cultivated according to the protocol described in Jang et al., 2010 [12]. The cell lines were cultivated with the following reagents: DMEM High Glucose, fetal bovine serum (FBS), Penicillin-Streptomycin Solution 100×, and Trypsin-EDTA 1×; all were purchased from Biowest, and G418 was from ThermoFisher Scientific. For the ELFI experiments, cells were seeded (8000/well) on a PDL-treated 96-well plate (BioCoat™, Corning Inc., Corning, NY, USA) and 6-well plate (400,000/well) for lysate collection and immunoblot analysis.
# as §2, §3
# [4] = molecular target: TrkB; settings: cited from earlier work
Molecule,"Phosphorylation of TrkB and downstream proteins (PLCγ1, Akt1, ERK1/2) [1]",Cytoprotective effect (cell viability) [2],Cytoprotective effect (cell viability) ([2]; listed as CPL503051),Activation of downstream proteins (Akt1 and ERK1/2) after inhibition of TrkB kinase by K252a ([3]; K252a 1 μM 15 min before 100 μM compound),"Phosphorylation of TrkB and downstream proteins (PLCγ1, Akt1, ERK1/2) [3]","Kd ([4]; ref Jang et al. (2010) [12], read-out: Binding affinity) [nM]","Kd ([4]; ref Liu et al. (2014) [35], read-out: Binding affinity) [nM]",Effect of cotreatment with K252a on the compound's effects ([1]; K252a 1 μM),"Kd ([4]; SPR, ref [12],[35], read-out: Kd) [nM]"
"O=C1C(O)=C(c2c[nH]c3ccccc23)C(=O)C(O)=C1c1c[nH]c2ccccc12 [CPL503052, didemethylasterriquinone D]","able to induce the phosphorylation of TrkB, Akt1, ERK1/2, and PLCγ1",no cytoprotective properties,did not demonstrate any cytoprotective effect,did not repress,demonstrated the activation of the TrkB receptor and phosphorylation of relevant downstream proteins,–,–,–,–
"O=c1cc(-c2ccccc2)oc2c(O)c(O)ccc12 [7,8-DHF, 7,8-dihydroxyflavone]","did not result in the expected effect; also recorded: lack of 7,8-DHF activity",not able to protect; also recorded: not able to confirm any cytoprotective action,–,–,"did not induce; also recorded: lack of 7,8-DHF activity",15.4,12.1,–,–
C=CC(C)(C)c1[nH]c2ccccc2c1C1=C(O)C(=O)C(c2c[nH]c3c(CC=C(C)C)cccc23)=C(O)C1=O [DMAQ-B1],"able to induce the phosphorylation of TrkB, Akt1, ERK1/2, and PLCγ1",did not demonstrate any cytoprotective effect,–,–,–,–,–,did not inhibit,–
"BDNF: Brain-derived neurotrophic factor, endogenous TrkB receptor agonist (protein, UniProt P23560 19-247, looked up) Neurotrophic factor BDNF …: APMKEANIRGQGGLAYPGVRTHGTLESVNGPKAGSRGLTSLADTFEHVIEELLDEDQKVRPNEENNKDADLYTSRVMLSSQVPLEPPLLFLLEEYKNYLDAANMSMRVRRHSDPARRGELSVCDSISEWVTAADKKTAVDMSGGTVTVLEKVPVSKGQLKQYFYETKCNPMGYTKEGCRGIDKRHWNSQCRTTQSYVRALTMDSKKRIGWRFIRIDTSCVCTLTIKRGR",induced the TrkB receptor and phosphorylation of downstream proteins,dose-dependent cytoprotective effect,–,–,significantly increased phosphorylation,–,–,–,1.7

# Source: publication PMC8398766, “Do Small Molecules Activate the TrkB Receptor in the Same Manner as BDNF? Limitations of Published TrkB Low Molecular Agonists and Screening for Novel TrkB Orthosteric Agonists” (Pharmaceuticals, 2021)
